Reference: patent publication US12194019B2, “Compositions and methods for treating pain with wogonin” (BRIGHAM YOUNG UNIVERSITY, priority 2018, dated 2025)
Marks after values point to notes of the source that are not given here.

Legend:
[1] = tested on: OA mouse model (surgical destabilization of the medial meniscal ligament, DMM); assay: Activity wheel use after DMM surgery, topical wogonin cream (Example 1); assay type: in vivo
Protocol: The use of wogonin for the treatment of osteoarthritic (OA) pain was investigated. Specifically, the benefit of using small doses of wogonin applied topically in a cream with penetration enhancers was investigated. The cream formulation shown in Table 2 was used in this study.
(§1) An OA mouse model was used to determine the efficacy of wogonin treatment. OA-like disease was induced by surgical destabilization of the medial meniscal ligament (DMM) of laboratory mice. Repair of the knee was assessed using the Modified Mankin Score which is widely accepted as the way to objectively compare OA progression by histological evaluation of a knee joint (See Larkin D J et al., Frontiers in physiology. 2013; 4:121 and Mankin H J. The New England journal of medicine. 1974; 291(24):1285-92). The mice were housed in activity wheel cages linked to a computer for activity tracking throughout the duration of the experiment. Twenty-four hours after surgical intervention the following treatments were applied topically to the affected knee: 0.00000142 g wogonin (500 μM wogonin) (n=6); 0.0000000028 g wogonin (10 μM wogonin) (n=6); and 10 μl vehicle (n=6). Treatment was applied every third day for 28 days.
At day 28 this pattern was repeated.

[2] = tested on: OA mouse model (DMM); assay: Modified Mankin score / histological evaluation of knee joint after DMM surgery (Example 1); assay type: in vivo
Protocol: as §1
(§2) While the wheel use data were encouraging, inhibiting inflammation alone and blocking pain, is insufficient to block the progression of OA. At the conclusion of the experiment (day 28) mice were sacrificed, knees collected, fixed and studied for Modified Mankin score and HtrA1 expression as previously reported in Spencer K MS and Jeffrey Z Kartchner W. Journal of Arthritis. 2015; 04(03). HtrA1 is the first in the biomarker cascade that is associated with OA progression.
(§3) Mouse knee OA was induced by surgical destabilization of the medial meniscal ligament (DMM surgery) and mice were treated with 10 μM of wogonin. Controls were DMM plus vehicle. […] Note the fissure and rough articular cartilage surface (see arrows) in the control knee.

[3] = tested on: HtrA1; assay: HtrA1 immunohistochemical staining in knee joints after DMM surgery (Example 1); assay type: in vivo, mouse; conditions: knees treated with 10 μM wogonin, day 28
Source text: as §2, §3

[4] = tested on: OA mouse model (DMM); assay: Activity wheel use after DMM surgery, wogonin in DMSO or in cream (Example 2); assay type: in vivo
Protocol: (§4) A second experiment using small doses of wogonin applied topically either in DMSO or in a cream with penetration enhancers was conducted. In this study, OA was induced by DMM surgery. Twenty four hours after surgery treatment was applied to the affected knee. The treatments included 0.00000142 g wogonin in 10 μl DMSO (500 μM wogonin) applied to the skin at the location of patellar tendon (n=5); 10 μl DMSO applied to the skin at the location of patellar tendon (n=5); 0.0000000028 g wogonin (10 μl G2 Cream E/10 μM wogonin) to the skin at the location of the patellar tendon (n=5). Treatment was applied every third day for 28 days. Immediately after surgery, mice were placed in an activity wheel cage in which wheel use was recorded on a computer. […] At day 28 this pattern was repeated.

[5] = tested on: OA mouse model (DMM); assay: Biomarker and Mankin scoring of knees (Example 2); assay type: in vivo; conditions: 500 μM (DMSO) vs 10 μM (cream) wogonin
Protocol: as §4
Again, below 1 μM and there would be insufficient wogonin to have an effect. Above 500 μM and there would be too much suppression of inflammation and ceramides. TGF-β1 is inhibited and chondrocytes can't return to homeostasis, […].

[6] = tested on: TGF-β1 gene expression in human chondrocytes (TC28a2); assay: qRTPCR of TGF-β1 gene expression in human chondrocytes; assay type: cell-based
Protocol: Human chondrocytes (TC28a2 Sigma-Aldrich, St. Louis, MO, USA) were cultured in EmbryoMax® DMEM (SLM-120 B Millipore, St. Louis, MO, USA) supplemented with 10% Fetal Calf Serum (F-2442-50 ML Sigma-Aldrich, St. Louis, MO, USA) to 80% confluence. Treatments consisted of: • 1. Untreated plate: Remove old media and replace with 10 mL fresh media. Incubate 4 hours. Remove media, rinse 3× with PBS and collect total RNA according to manufacturer's protocol ([…] ZYMO Research, Irvine, CA, USA). • 2. Treat with 10 μM wogonin (dissolved in DMSO). Remove old media and replace with 10 mL conditioned media containing wogonin. Incubate 4 hours. Remove media, rinse 3× with PBS and collect total RNA according to manufacturer's protocol ([…] ZYMO Research, Irvine, CA, USA). • 3. Treat with 1 ng/mL IL-1β (dissolved in dds water). Remove old media and replace with 10 mL conditioned media containing IL-1β. Incubate 4 hours. Remove media, rinse 3× with PBS and collect total RNA according to manufacturer's protocol ([…] ZYMO Research, Irvine, CA, USA). • 4. Treat with 10 μM wogonin; wait 1 hour and add 1 ng/mL IL-1β, incubate 4 hours. Remove old media and replace with 10 mL conditioned media containing wogonin. Incubate 1 hour. […] Quantitative Real-time Polymerase Chain Reaction (qRTPCR) was performed using the Life Technologies One Step Plus Sequence Detection System and Software (Life Technologies). […]

[7] = tested on: BBS 3 gene expression in human chondrocytes (TC28a2); assay: qRTPCR of BBS 3 gene expression in human chondrocytes; assay type: cell-based
Protocol: Human chondrocytes (TC28a2 Sigma-Aldrich, St. Louis, MO, USA) were cultured in EmbryoMax® DMEM (SLM-120 B Millipore, St. Louis, MO, USA) supplemented with 10% Fetal Calf Serum (F-2442-50 ML Sigma-Aldrich, St. Louis, MO, USA) to 80% confluence. Treatments consisted of: • 1. Untreated plate: Remove old media and replace with 10 mL fresh media. Incubate 4 hours. Remove media, rinse 3× with PBS and collect total RNA according to manufacturer's protocol ([…] ZYMO Research, Irvine, CA, USA). • 2. Treat with 10 μM wogonin (dissolved in DMSO). Remove old media and replace with 10 mL conditioned media containing wogonin. Incubate 4 hours. Remove media, rinse 3× with PBS and collect total RNA according to manufacturer's protocol ([…] ZYMO Research, Irvine, CA, USA). • 3. Treat with 1 ng/mL IL-1β (dissolved in dds water). Remove old media and replace with 10 mL conditioned media containing IL-1β. Incubate 4 hours. Remove media, rinse 3× with PBS and collect total RNA according to manufacturer's protocol ([…] ZYMO Research, Irvine, CA, USA). • 4. Treat with 10 μM wogonin; wait 1 hour and add 1 ng/mL IL-1β, incubate 4 hours. Remove old media and replace with 10 mL conditioned media containing wogonin. Incubate 1 hour. Add 10 μL 1 ng/mL IL-1β. Pipet media up and down in cell culture dish 3× gently to mix. Incubate 4 hours. Remove media, rinse 3× with PBS and collect total RNA according to manufacturer's protocol ([…] ZYMO Research, Irvine, CA, USA). cDNA was made from total RNA according to manufacturer's protocol (1725038 BIO-RAD, Hercules, CA, USA). Quantitative Real-time Polymerase Chain Reaction (qRTPCR) was performed using the Life Technologies One Step Plus Sequence Detection System and Software (Life Technologies). SYBR-green-based PrimeTime assays (IDT) were used to detect human TGF-β1 and BBS 3.

[8] = tested on: mouse formalin test; conditions: intraperitoneal injection, 200 mg/kg; cited from earlier work
[9] = tested on: MMP-3; conditions: intra-articular injection, inflammation initiated by IL-1β; cited from earlier work

COc1c(O)cc(O)c2c(=O)cc(-c3ccccc3)oc12 [Wogonin, 5,7-dihydroxy-8-methoxyflavone]
Average Wheel Use ([1]; 10 μM wogonin cream topical, Day 7): 12443** | Average Wheel Use ([1]; 10 μM wogonin cream topical, Day 7, listed as wogonin): significantly higher wheel use than control or vehicle alone | Average Wheel Use ([1]; 10 μM wogonin cream topical, Day 14): 22000*** | Average Wheel Use ([1]; 10 μM wogonin cream topical, Day 14, listed as wogonin): higher activity wheel use than those receiving 500 μM | Average Wheel Use ([1]; 10 μM wogonin cream topical, Day 28): 19358** | Average Wheel Use ([1]; 500 μM wogonin cream topical to knee every third day, Day 7): 12608** | Average Wheel Use ([1]; 500 μM wogonin cream topical to knee every third day, Day 7, listed as wogonin): significantly higher wheel use than control or vehicle alone | Average Wheel Use ([1]; 500 μM wogonin cream topical, Day 14): 17910** | Average Wheel Use ([1]; 500 μM wogonin cream topical, Day 28): 16528* | OA as measured by Modified Mankin score ([2]; 1 μM wogonin applied topically): sufficient to significantly reduce OA | Benefit in reducing the progression of OA ([2]; 10 μM compared to 500 μM wogonin): greater benefit | Modified Mankin score of OA ([2]; 10 μM wogonin topical vs DMM plus vehicle, day 28): statistically (p>0.05) lower | Effect on inflammation and biomarkers ([2]; dosages above 500 μM wogonin): too much suppression of inflammation and biomarkers | Effect on OA ([2]; dosages below 1 μM wogonin): insufficient to have an effect | Articular cartilage surface (histology) ([2]; knees treated with 10 μM wogonin, day 28): essentially normal | Expression of HtrA1 (immunohistochemical staining) [3]: essentially absent | Average (activity wheel use) ([4]; 500 μM wogonin in 10 μl DMSO topical, Day 7, listed as Wogonin + DMSO): 12608* | Average (activity wheel use) ([4]; 500 μM wogonin in 10 μl DMSO topical, Day 7, listed as wogonin in DMSO): significantly higher wheel use than DMSO only | Average (activity wheel use) ([4]; 500 μM wogonin in DMSO topical, Day 14, listed as DMSO+wogonin): no difference | Average (activity wheel use) ([4]; 500 μM wogonin in DMSO topical, Day 14, listed as Wogonin + DMSO): 15191 | Average (activity wheel use) ([4]; 500 μM wogonin in DMSO topical, Day 28): 15492 | Biomarker and Mankin scoring of knees [5]: higher dose of wogonin is beneficial initially but the lower dose remained beneficial throughout the experiment | Drop in gene expression of TGF-β1 ([6]; 10 μM wogonin pre-treatment 1 hour, then 1 ng/mL IL-1β 4 hours): < 40% | Lowering of the wogonin response (BBS 3 gene expression) by IL-1β ([7]; 10 μM wogonin pre-treatment, then 1 ng/mL IL-1β): almost half | Increase in gene expression of BBS 3 ([7]; 10 μM wogonin, 4 hours): 125% | Increase in BBS 3 expression ([7]; wogonin, human chondrocytes): 1.25 fold | Pain symptoms in mouse formalin test [8]: improvement of pain symptoms | MMP-3 expression in articular cartilage [9]: decreased MMP-3 expression

IL-1β: pro-inflammatory cytokine used at 1 ng/mL to treat human chondrocytes [reference compound]
Drop in gene expression of TGF-β1 ([6]; 1 ng/mL IL-1β, 4 hours, vs untreated): 80% | Effect on BBS 3 gene expression ([7]; 1 ng/mL IL-1β alone, 4 hours): no effect
